The text below walks through data of US11897862B2 (Gilead Sciences, Inc., priority 2022, dated 2024).

Type in all cases: cell-based
In one experiment the target is T1, IKZF1 (Homo sapiens, UniProt Q13422+Q96SW2).
T1 construct: expressed in transfected cells
Nature of the experiment: HEK293 HiBiT in vitro degradation of IKZF1. Particulars: for Dmax: HEK293, HEK293 HiBiT; for Dmax / IKZF1 Dmax: maximum degradation at the highest concentration tested; for DC50 / IKZF1 Dmax: HEK293 HiBiT; for DC50: 18-24 hr incubation, normalized to DMSO control, read-out: IKZF1 EC50. A digest of the protocol:
(§1)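 Degradation was scored as loss of HiBiT signal from C-terminally tagged IKZF1, IKZF2 or SALL4 in doxycycline-induced Flp-In T-REx HEK293 cells after overnight (18-24 h) compound treatment. EC50 and Dmax were derived from the luminescence.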

For experiment [1], the target named is T2, IKZF2 (Homo sapiens, UniProt Q96SW2+Q9UKS7). Nature of the experiment: HEK293 HiBiT in vitro degradation of IKZF2. The conditions noted are these: for DC50 / IKZF2 Dmax: HEK293 HiBiT; for DC50: 18-24 hr incubation, normalized to DMSO control, read-out: IKZF2 EC50; for IKZF2 Dmax / Dmax: maximum degradation at the highest concentration tested; for Dmax: HEK293, HEK293 HiBiT. More on the design: expressed in transfected cells. The procedure, abridged: as §1
Target sequence in this assay (Q9UKS7 1-500 isoform Q9UKS7-2): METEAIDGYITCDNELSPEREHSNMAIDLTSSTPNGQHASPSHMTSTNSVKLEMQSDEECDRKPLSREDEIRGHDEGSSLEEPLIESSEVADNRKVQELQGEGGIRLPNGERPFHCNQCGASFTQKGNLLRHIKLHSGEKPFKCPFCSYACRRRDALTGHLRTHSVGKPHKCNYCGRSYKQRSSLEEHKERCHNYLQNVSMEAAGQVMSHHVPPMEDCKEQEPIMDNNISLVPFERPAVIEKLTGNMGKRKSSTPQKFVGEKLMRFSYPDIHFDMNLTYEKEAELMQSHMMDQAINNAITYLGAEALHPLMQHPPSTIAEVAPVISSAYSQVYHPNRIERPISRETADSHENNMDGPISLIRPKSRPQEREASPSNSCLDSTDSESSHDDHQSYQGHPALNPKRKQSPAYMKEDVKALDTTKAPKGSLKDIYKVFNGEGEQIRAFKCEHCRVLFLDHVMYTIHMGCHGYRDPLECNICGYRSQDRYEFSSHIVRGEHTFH
Target sequence in this assay (Q96SW2 whole entry): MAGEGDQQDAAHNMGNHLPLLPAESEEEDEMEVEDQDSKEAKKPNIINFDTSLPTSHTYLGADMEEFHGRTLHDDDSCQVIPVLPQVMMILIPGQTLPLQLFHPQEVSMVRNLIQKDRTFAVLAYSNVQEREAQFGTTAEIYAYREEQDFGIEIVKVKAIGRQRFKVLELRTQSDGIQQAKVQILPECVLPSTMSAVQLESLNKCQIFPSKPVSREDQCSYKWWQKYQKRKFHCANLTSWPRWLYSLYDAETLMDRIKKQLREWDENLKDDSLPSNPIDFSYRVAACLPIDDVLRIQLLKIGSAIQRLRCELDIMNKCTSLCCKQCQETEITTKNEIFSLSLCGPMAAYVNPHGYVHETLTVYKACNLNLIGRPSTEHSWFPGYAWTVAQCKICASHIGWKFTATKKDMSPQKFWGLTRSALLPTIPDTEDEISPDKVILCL
Target sequence in this assay (Q16531 whole entry partner): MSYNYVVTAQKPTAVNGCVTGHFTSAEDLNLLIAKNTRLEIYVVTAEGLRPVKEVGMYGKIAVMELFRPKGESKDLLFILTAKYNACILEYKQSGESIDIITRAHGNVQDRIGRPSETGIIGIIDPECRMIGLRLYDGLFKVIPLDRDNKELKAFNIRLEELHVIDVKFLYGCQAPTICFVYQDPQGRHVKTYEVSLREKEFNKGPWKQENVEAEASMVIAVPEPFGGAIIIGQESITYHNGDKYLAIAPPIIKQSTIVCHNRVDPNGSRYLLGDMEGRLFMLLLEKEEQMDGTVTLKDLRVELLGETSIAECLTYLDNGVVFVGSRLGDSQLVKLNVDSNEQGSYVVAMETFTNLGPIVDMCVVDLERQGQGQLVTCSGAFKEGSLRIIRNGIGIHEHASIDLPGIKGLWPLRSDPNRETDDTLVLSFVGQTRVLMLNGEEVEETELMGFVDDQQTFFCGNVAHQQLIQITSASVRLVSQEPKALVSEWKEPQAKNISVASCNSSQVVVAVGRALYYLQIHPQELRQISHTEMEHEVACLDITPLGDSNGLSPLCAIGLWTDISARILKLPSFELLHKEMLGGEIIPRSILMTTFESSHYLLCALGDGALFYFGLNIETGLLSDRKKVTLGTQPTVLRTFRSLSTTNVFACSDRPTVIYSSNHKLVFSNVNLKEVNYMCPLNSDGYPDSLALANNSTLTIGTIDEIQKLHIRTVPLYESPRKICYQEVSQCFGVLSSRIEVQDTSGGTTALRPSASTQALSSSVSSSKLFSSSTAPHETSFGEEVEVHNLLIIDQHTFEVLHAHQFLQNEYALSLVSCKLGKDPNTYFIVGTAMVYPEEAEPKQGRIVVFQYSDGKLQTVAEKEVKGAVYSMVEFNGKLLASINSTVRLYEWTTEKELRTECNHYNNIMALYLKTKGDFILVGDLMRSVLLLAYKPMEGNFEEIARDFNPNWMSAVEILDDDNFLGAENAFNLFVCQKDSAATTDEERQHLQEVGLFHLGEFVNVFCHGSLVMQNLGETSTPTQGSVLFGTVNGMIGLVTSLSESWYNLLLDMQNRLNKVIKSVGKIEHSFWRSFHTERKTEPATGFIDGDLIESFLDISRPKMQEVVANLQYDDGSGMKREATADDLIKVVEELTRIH

For experiment [2], the target named is T2, IKZF2. Nature of the experiment: Human whole blood IKZF2 degradation (flow cytometry, CD4/CD25/Foxp3+ Treg cells). The conditions noted are these: 24 hrs incubation, IKZF2 MFI in CD4/CD25/Foxp3+ Treg cells, flow cytometry; for DC50: read-out: IKZF2 EC50. More on the design: endogenous in cells. The procedure: In vitro IKZF2 potency was assessed in human whole blood using a fluorescence activated cell sorting assay. 50 μL of freshly collected blood from healthy human volunteers was incubated with Immunocult CD3/CD28 activator (Stemcell Technologies) and solution of testing compounds (serially-diluted) for 24 hrs hours at 37° C. in 384 well plates. The treated red blood cells were removed by adding lysis buffer (BD cat #558049) then the cells were fixed, permeabilized, and stained with anti-CD4 (BD cat #564419), anti-Foxp3 (Invitrogen cat #48-4777-42), anti-IKZF1 (Cell Signaling Tech. cat #33462S), and anti-IKZF2(Cell Signaling Tech. cat #65432S) antibodies. The median fluorescent intensity (MFI) of IKZF2 signal from CD4/CD25/Foxp3+ Treg cells and MFI of IKZF1 signal from CD4+ T cells were quantified in the same samples by flow cytometry using an Attune instrument. EC50 and Dmax of each compound was determined by plotting the MFI and DMSO treated wells were used as control. Asterisks (*) indicate examples for which data represents an average of n≥3 repeat experiments.
Target sequence in this assay (Q9UKS7 whole entry): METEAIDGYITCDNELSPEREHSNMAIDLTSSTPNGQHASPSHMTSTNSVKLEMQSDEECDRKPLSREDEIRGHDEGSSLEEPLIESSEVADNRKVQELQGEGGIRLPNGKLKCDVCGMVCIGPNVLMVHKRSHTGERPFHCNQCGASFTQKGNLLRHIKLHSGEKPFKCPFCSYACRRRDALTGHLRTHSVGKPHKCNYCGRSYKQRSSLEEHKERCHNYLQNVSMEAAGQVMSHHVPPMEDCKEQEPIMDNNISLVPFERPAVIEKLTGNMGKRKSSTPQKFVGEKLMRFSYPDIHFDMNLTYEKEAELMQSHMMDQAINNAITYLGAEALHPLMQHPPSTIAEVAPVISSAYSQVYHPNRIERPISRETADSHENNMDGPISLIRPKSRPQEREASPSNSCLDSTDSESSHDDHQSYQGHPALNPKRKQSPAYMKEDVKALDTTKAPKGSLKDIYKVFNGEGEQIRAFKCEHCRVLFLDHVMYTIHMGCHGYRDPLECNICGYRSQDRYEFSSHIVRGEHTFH
Target sequence in this assay (Q96SW2 whole entry): as the sequence (Q96SW2 whole entry) above
Target sequence in this assay (Q16531 whole entry partner): as the sequence (Q16531 whole entry partner) above

Each structure is given as a SMILES string.

T1 sequence (Q13422 whole entry): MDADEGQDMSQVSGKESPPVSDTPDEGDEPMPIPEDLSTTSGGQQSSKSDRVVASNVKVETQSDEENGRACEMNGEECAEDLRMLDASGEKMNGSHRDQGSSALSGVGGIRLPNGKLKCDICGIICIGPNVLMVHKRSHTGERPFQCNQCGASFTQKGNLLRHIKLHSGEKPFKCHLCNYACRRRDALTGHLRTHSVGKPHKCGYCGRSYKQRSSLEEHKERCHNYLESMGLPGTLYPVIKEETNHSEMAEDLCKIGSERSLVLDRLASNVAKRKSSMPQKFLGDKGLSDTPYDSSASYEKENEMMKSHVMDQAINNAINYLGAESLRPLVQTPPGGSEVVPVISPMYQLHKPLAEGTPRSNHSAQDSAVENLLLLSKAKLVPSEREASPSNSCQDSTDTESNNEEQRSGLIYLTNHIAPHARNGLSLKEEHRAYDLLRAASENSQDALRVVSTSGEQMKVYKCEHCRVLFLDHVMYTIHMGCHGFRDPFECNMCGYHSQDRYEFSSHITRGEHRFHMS
T1 sequence (Q96SW2 whole entry): as the sequence (Q96SW2 whole entry) above
T1 sequence (Q16531 whole entry partner): as the sequence (Q16531 whole entry partner) above

With `CC(CC(F)(F)F)N[C@H]1CCCC[C@@H]1Cc1ccc2c(c1)CN(C1CCC(=O)NC1=O)C2=O` (single isomer, unassigned) [Example 250], on IKZF1, the Dmax came out at 30% and the DC50 stood at 117 nM. In addition, at IKZF2 [1], the DC50 was 2 nM and the “IKZF2 Dmax” value is given as 97%. Further, at IKZF2 [2], the maximal degradation (Dmax) stood at 100% and the DC50 is 4 nM.
On to `COCC1CCC(N[C@H]2CCCC[C@@H]2Cc2ccc3c(c2)CN(C2CCC(=O)NC2=O)C3=O)CC1` (single isomer, unassigned) [Example 251], for which the Dmax at IKZF1 amounted to 35%; on IKZF2 [1], 98%; at IKZF2 [2], 98%. Further, the figures for the DC50 at IKZF1, at IKZF2 [1] and at IKZF2 [2] were 213 nM, 1 nM and 2 nM, respectively.
Take `COCC1CCC(N[C@H]2CCCC[C@@H]2Cc2ccc3c(c2)CN(C2CCC(=O)NC2=O)C3=O)CC1` (single isomer, unassigned) [Example 252]: the DC50 turned out to be 105 nM on IKZF1, 3 nM on IKZF2 [1] and 1 nM at IKZF2 [2]. The “IKZF1 Dmax” value at IKZF1 is 31%. The “IKZF2 Dmax” value on IKZF2 [1] was 98%; on IKZF2 [2], 97%.
Turning to `O=C1CCC(N2Cc3cc(C[C@H]4CCCC[C@@H]4NC4CC5CC5C4)ccc3C2=O)C(=O)N1` (single isomer, unassigned) [Example 266], the maximal degradation (Dmax) is 32% on IKZF1, 97% at IKZF2 [1] and 98% at IKZF2 [2]. The DC50 on IKZF1 came to 55 nM; at IKZF2 [1] it was 4 nM; on IKZF2 [2], 6 nM.
On to `N#CC1CCC(N[C@H]2CCCC[C@@H]2Cc2ccc3c(c2)CN(C2CCC(=O)NC2=O)C3=O)CC1` (single isomer, unassigned) [Example 267], for which the Dmax on IKZF1 worked out at 44%; at IKZF2 [1], 98%; on IKZF2 [2], 97%. Further, the DC50 on IKZF1 was 109 nM; at IKZF2 [1], 4 nM; on IKZF2 [2], 2 nM.
Take `O=C1CCC(N2Cc3cc(C[C@H]4CCCC[C@@H]4NC4CCC5(CC4)CC5(F)F)ccc3C2=O)C(=O)N1` (single isomer, unassigned) [Example 272]: on IKZF1, the DC50 was 40 nM and the “IKZF1 Dmax” value stood at 54%. At IKZF2 [1], the DC50 was found to be 1 nM and the “IKZF2 Dmax” value is reported as 98%. On IKZF2 [2], the Dmax came to 97% and the DC50 came out at 2 nM.
Turning to `COC1CCC(N[C@H]2CCCC[C@@H]2Cc2ccc3c(c2)CN(C2CCC(=O)NC2=O)C3=O)CC1` (single isomer, unassigned) [Example 277], the figures for the maximal degradation (Dmax) on IKZF1, at IKZF2 [1] and on IKZF2 [2] were 37%, 98% and 95%, respectively. Moreover, the DC50 is 114 nM on IKZF1, 3 nM on IKZF2 [1] and 2 nM on IKZF2 [2].
Turning to `O=C1CCC(N2Cc3cc(C[C@H]4CCCC[C@@H]4NC4CCC5(CC5)C4)ccc3C2=O)C(=O)N1` (single isomer, unassigned) [Example 281], the figures for the greatest degradation seen (Dmax) at IKZF1, on IKZF2 [1] and on IKZF2 [2] were 30%, 96% and 98%, respectively. Also, the results for the DC50 at IKZF1, on IKZF2 [1] and at IKZF2 [2] were 43 nM, 2 nM and 5 nM, respectively.
Consider `CC(N[C@H]1CCCC[C@@H]1Cc1ccc2c(c1F)CN(C1CCC(=O)NC1=O)C2=O)C1CCOCC1` (single isomer, unassigned) [Example 288], for which, on IKZF1, the DC50 came to 399 nM and the “IKZF1 Dmax” value is recorded as 32%. Moreover, on IKZF2 [1], the DC50 was 6 nM and the “IKZF2 Dmax” value came to 97%. Moreover, on IKZF2 [2], the “IKZF2 Dmax” value came to 92% and the DC50 was determined as 5 nM.
Turning to `CCC(C)N[C@H]1CCCC[C@@H]1Cc1ccc2c(c1)CN(C1CCC(=O)NC1=O)C2=O` (single isomer, unassigned) [Example 299], the DC50 on IKZF1 is above 1000 nM; on IKZF2 [1], 2 nM; at IKZF2 [2], 2 nM. In addition, the Dmax turned out to be 98% on IKZF2 [1] and 96% at IKZF2 [2].
Regarding `CC(C)N[C@H]1CCCC[C@@H]1Cc1ccc2c(c1)CN(C1CCC(=O)NC1=O)C2=O` (stereo partly drawn) [Example 7, 3-(5-(((1R,2S)-2-(isopropylamino)cyclohexyl)methyl)-1-oxoisoindolin-2-yl)piperidine-2,6-dione], the results for the Dmax at IKZF1, at IKZF2 [1] and on IKZF2 [2] were 36%, 99% and 98%, respectively. The DC50 stood at 462 nM on IKZF1, 4 nM on IKZF2 [1] and 2 nM at IKZF2 [2].
For the compound `CCC(CC)N[C@H]1CCCC[C@@H]1Cc1ccc2c(c1)CN(C1CCC(=O)NC1=O)C2=O` (stereo partly drawn) [Example 23, 3-(1-oxo-5-(((1R,2S)-2-(pentan-3-ylamino)cyclohexyl)methyl)isoindolin-2-yl)piperidine-2,6-dione], the Dmax on IKZF1 came out at 14%; at IKZF2 [1], 95%; at IKZF2 [2], 98%. Further, the DC50 on IKZF1 was 374 nM; at IKZF2 [1], 6 nM; at IKZF2 [2], 6 nM.
Take `O=C1CCC(N2Cc3cc(C[C@H]4CCCC[C@@H]4NCC4CC(F)(F)C4)ccc3C2=O)C(=O)N1` (stereo partly drawn) [Example 24, 3-(5-(((1R,2S)-2-(((3,3-difluorocyclobutyl)methyl)amino)cyclohexyl)methyl)-1-oxoisoindolin-2-yl)piperidine-2,6-dione]: the Dmax at IKZF1 amounted to 25%; at IKZF2 [1], 91%; at IKZF2 [2] it was 89%. Moreover, the DC50 on IKZF1 was found to be 345 nM; at IKZF2 [1] it was 10 nM; at IKZF2 [2], 8 nM.
Regarding `O=C1CCC(N2Cc3cc(C[C@H]4CCCC[C@@H]4NC4CCC5(CC4)CC5)ccc3C2=O)C(=O)N1` (stereo partly drawn) [Example 28, 3-(1-oxo-5-(((1R,2S)-2-(spiro[2.5]octan-6-ylamino)cyclohexyl)methyl)isoindolin-2-yl)piperidine-2,6-dione], the Dmax came out at 56% on IKZF1, 97% at IKZF2 [1] and 99% on IKZF2 [2]. Also, the DC50 at IKZF1 was 327 nM; at IKZF2 [1], 2 nM; at IKZF2 [2] it was 3 nM.
On to `O=C1CCC(N2Cc3cc(C[C@H]4CCCC[C@@H]4NC4CCCC4)ccc3C2=O)C(=O)N1` (stereo partly drawn) [Example 52, 3-(5-(((1R,2S)-2-(cyclopentylamino)cyclohexyl)methyl)-1-oxoisoindolin-2-yl)piperidine-2,6-dione], for which the results for the DC50 at IKZF1, at IKZF2 [1] and at IKZF2 [2] were above 1000 nM, 6 nM and 5 nM, respectively. The greatest degradation seen (Dmax) on IKZF2 [1] came to 96%; on IKZF2 [2], 95%.
As to `CC(C)(C)CCN[C@H]1CCCC[C@@H]1Cc1ccc2c(c1)CN(C1CCC(=O)NC1=O)C2=O` (stereo partly drawn) [Example 56, 3-(5-(((1R,2S)-2-((3,3-dimethylbutyl)amino)cyclohexyl)methyl)-1-oxoisoindolin-2-yl)piperidine-2,6-dione], the results for the Dmax on IKZF1, at IKZF2 [1] and at IKZF2 [2] were 44%, 96% and 97%, respectively. Besides, the DC50 at IKZF1 is 68 nM; at IKZF2 [1], 14 nM; on IKZF2 [2], 8 nM.
On to `O=C1CCC(N2Cc3cc(C[C@H]4CCCC[C@@H]4NCC45CC(C4)C5)ccc3C2=O)C(=O)N1` (stereo partly drawn) [Example 63], for which the results for the DC50 on IKZF1, at IKZF2 [1] and on IKZF2 [2] were above 1000 nM, 19 nM and 19 nM, respectively. In addition, the Dmax is 89% at IKZF2 [1] and 91% on IKZF2 [2].
